Assay results: ChEMBL document CHEMBL1130201, “Antimalarial activity of molecules interfering with Plasmodium falciparum phospholipid metabolism. Structure-activity relationship analysis” (J Med Chem, 1997)

Tested on: Plasmodium falciparum
Assay: Inhibitory activity against Plasmodium falciparum
Format: functional, organism-based

| Molecule | IC50 (Plasmodium falciparum) | IC50 |
| --- | --- | --- |
| OCCN1CC1 | 50 µM |  |
| CCCCCCCCCCCCNCCOC | 2.1 µM |  |
| CCN(CC)CCO [DIETHYLAMINOETHANOL] | 400 µM |  |
| CC(C)(C)CCO | > 2000 µM |  |
| CCCCCCCCCCCCCCCCCC[N+](C)(C)Cc1ccccc1 | 0.7 µM |  |
| CCCCCCCCCCCC[N+](C)(C)CCO | 0.48 µM |  |
| C[N+](C)(C)CCOP(=O)([O-])O | 1200 µM |  |
| CCCCCCCCCCCCCC[N+](CC)(CC)CCO | 0.55 µM |  |
| OCCN1CCCC1 | 420 µM |  |
| C[N+](C)(C)CCCCCC[N+](C)(C)C [HEXAMETHONIUM BROMIDE] | 700 µM |  |
| CN(C)CCCCCCN(C)C | 130 µM |  |
| CCCCCCCCCCCC[N+](CC)(CC)CC | 0.064 µM |  |
| CN(C)CCO [DIMETHYLAMINOETHANOL] | 1300 µM |  |
| NCCCCCN | 2000 µM |  |
| CCCCCCCCCCCC[N+](C)(C)CCBr | 0.21 µM |  |
| C[N+](C)(C)CCCCCCCCCCCC[N+](C)(C)C | 0.09 µM |  |
| CCCCCCCCCCCC[N+](C)(CCO)CCCCCCCCCCCC | 0.84 µM |  |
| CCCCCCCCCCCCCC[N+](C)(C)Cc1ccccc1 [MIRISTALKONIUM CHLORIDE] | 1 µM |  |
| CC(N)CO (stereo unspecified) | 300 µM |  |

| Molecule | IC50 (Plasmodium falciparum) | IC50 |
| --- | --- | --- |
| CC[N+](C)(C)CCO | > 300 µM |  |
| C[N+](C)(C)CCCl [CHLORMEQUAT CHLORIDE] | 200 µM |  |
| C[C@H]1O[C@@H](C[N+](C)(C)C)C[C@@H]1O | > 200 µM |  |
| CCCCCCCCCCCC[N+](C)(C)CC | 0.11 µM |  |
| CC(O)CN (stereo unspecified) | 800 µM |  |
| CCCCCCCCCCCCCC[N+](C)(C)CCO | 0.6 µM |  |
| CC[N+](CC)(CC)CC [TETRYLAMMONIUM BROMIDE] | 700 µM |  |
| C[N+](C)(CCO)C1CCCCC1 | 120 µM |  |
| C[Se+](C)CCO | 420 µM |  |
| CCCCCCCCCCCC[N+](C)(C)CCCC | 0.26 µM |  |
| CC[N+](CC)(CCO)CCCCCCCCCC[N+](CC)(CC)CCO | 2 µM |  |
| CCCCCCCCCCCCNC(CC)CO (stereo unspecified) | 0.61 µM |  |
| CC(Cc1ccccc1)[N+](C)(C)CCO (stereo unspecified) | 250 µM |  |
| CCC(N)CO (stereo unspecified) | 80 µM |  |
| CCCCCCCCCCCC[N+](C)(C)C | 0.5 µM |  |
| CC(=O)OCC[N+](C)(C)C [ACETYLCHOLINE CHLORIDE] | > 8000 µM |  |
| C[N+](C)(C)CCCCCCCCCC[N+](C)(C)C [DECAMETHONIUM BROMIDE] | 1.7 µM |  |
| CN(C)CCOC(=O)COc1ccc(Cl)cc1 [MECLOFENOXATE] | 500 µM |  |
| CC(C)(N)CO [DEANOL] | 900 µM |  |

The next lines start with the values.

| IC50 (Plasmodium falciparum) | IC50 | Molecule |
| --- | --- | --- |
| 0.34 µM |  | CCCCCCCCCCCC[N+](CC)(CC)CCO |
| 1.3 µM |  | CCCCCCCCCCCCN(C)CCO |
| > 8000 µM |  | C[N+](C)(C)CC(=O)O [BETAINE] |
| 350 µM |  | OCCN1CCCCC1 |
| 1.6 µM |  | CCCCCCCCC[N+](C)(C)C |
| 0.51 µM |  | CCCCCCCCCCCCNCCO |
| 0.7 µM |  | CCCCCCCCCC[N+](C)(C)C |
| 0.62 µM |  | CCCCCCCCCCCCCCCCCC[N+](CC)(CC)CCO |
| 600 µM |  | CCC(N)(CO)CO |
| 81.3 µM |  | CCCCC[N+](C)(C)CCO |
| 1200 µM |  | OCCN1CCN(CCO)CC1 |
| 300 µM |  | CCCCCCC[N+](C)(C)C |
| 0.5 µM |  | CCCCCCCCCCC[N+](C)(C)C |
| 110 µM |  | C[N+](C)(CCO)CCc1ccccc1 |
| 0.15 µM |  | C[N+]1(CCCCCCCCCC[N+]2(C)CCCC2)CCCC1 |
|  | 0.9 µM | CETRIMIDE |
| 0.15 µM |  | CCCCCCCCCCCC[N+](C)(C)CCC |
| 4830 µM |  | C[N+]1(CCO)CCOCC1 |
| 1100 µM |  | OCCNCCO [DIETHANOLAMINE] |

| IC50 (Plasmodium falciparum) | IC50 | Molecule |
| --- | --- | --- |
| 0.033 µM |  | CCCCCCCCCCCC[N+](CCC)(CCC)CCC |
| 2.1 µM |  | CCCCCCCCCCCCCCCCCC[N+](C)(C)C [TRIMETHYL-OCTADECYL-AMMONIUM CHLORIDE] |
| > 1000 µM |  | OC1CCNC1 (stereo unspecified) |
| 1260 µM |  | CC[N+](CC)(CCO)CCCCC[N+](CC)(CC)CCO |
| 0.97 µM |  | CCCCCCCCCC[N+](C)(C)CCO |
| 700 µM |  | C[N+](C)(C)C1CCCCC1O (stereo unspecified) |
| 230 µM |  | C[N+]1(CCO)CCCC1 |
| 1.5 µM |  | CCCCCCCCCCCC[N+](CC)(CCO)CCCCCCCCCCCC |
| 40 µM |  | OCCNCc1ccccc1 |
| 4 µM |  | C[N+](C)(CCO)CC(=O)c1ccc(-c2ccc(C(=O)C[N+](C)(C)CCO)cc2)cc1 |
| > 2000 µM |  | NCCCCCO |
| 0.7 µM |  | CCCCCCCCCCCC[N+](C)(C)CCCCCCCCCCCC |
| 50 µM |  | NC(CO)CO |
| 650 µM |  | C[N+]1(CCCCC[N+]2(C)CCCC2)CCCC1 |
| 1.3 µM |  | CCCCCCCCCCCCCCCCCC[N+](C)(C)CCO |
| 800 µM |  | NCCCO |
| 200 µM |  | NCCS [CYSTEAMINE] |
| 112 µM |  | C[N+](C)(CCO)Cc1ccccc1 |
| > 1000 µM |  | OC1CCCNC1 (stereo unspecified) |
